Source: US20250051375A1, “ANTI-HIV COMPOUNDS” (Gilead Sciences, Inc., priority 2023, published 2025)
In brackets after ≈: the same amount, converted by molar mass. Read-outs that look alike come from different tables or passages of the source.

Columns and labels:
[1] = Solubility in FaSSIF; conditions: 23 °C, pH 6.5, fassif, thermodynamic from solid
Method in brief: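 Concentration measured by HPLC-UV after solid compound was dosed at 5 mg/mL into pH 6.5 fasted-state simulated intestinal fluid containing taurocholate and lecithin (4:1 molar) and vortexed.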

[2] = Intestinal S9 Assay (human GI S9); format: in vitro ADME; conditions: 1.0 mg/mL S9 protein; for half-life at 2 μM: human, TRIS pH 7.4, read-out: Human GI S9 T½
Description: (§1) Reagents. Stock solutions of test compounds in dimethyl sulfoxide (DMSO) having a final concentration of 10 mM were prepared and used in all experiments. Sekisui XenoTech (Kansas City, KS) provided pooled intestinal S9 fractions. All other chemicals were purchased from Sigma-Aldrich (St. Louis, MO) or VWR (West Chester, PA). Internal Standard/Quench (IS/Q) used to stop reactions was 100 nM labetalol in (by volume) formic acid (1%) and acetonitrile (99%).
(§2) Intestinal S9 Assay: For each test compound, an aliquot of the test compound was added to S9 stock diluted with TRIS buffer (100 mM TRIS, 1 mM ZnCl2, 1 mM MgCl2), pH 7.4, to obtain an incubation protein concentration of 1.0 mg/mL. The incubation was initiated by the addition of the substrate to the S9 reaction mixture to a final concentration of 2 μM. At 0, 10, 20, 30, 60 and 120 min, 25 μL aliquots of the reaction mixture were transferred to plates containing 225 μl of IS/Q solution. After quenching, the plates were centrifuged at 3000×g for 30 minutes. 150 μL aliquots of each supernatant were transferred to new plates and 150 μL water was added. Aliquots (10 μL) of the prepared samples were analyzed on a Thermo Q-Exactive mass spectrometer as described below.
(§3) Liquid Chromatography-Mass Spectrometry: Quantification of test compounds and control substrate was performed by analyte/internal standard peak area ratio (PAR) values measured on a Thermo Q-Exactive mass spectrometer coupled to a Dionex UltiMate 3000 HPLC with a Leap Technologies HTC PAL autosampler. The column used for analysis was a Thermo Scientific Hypersil GOLD (1.9 μm particle size, 50×2.1 mm). Mobile phase A consisted of 0.1% (v/v) formic acid in water. Mobile phase B consisted of 0.1% (v/v) formic acid in acetonitrile. Elution of analytes was achieved by a series of linear gradients varying the proportions of A and B. The mass spectrometer was calibrated on a weekly basis and mass tolerance of 5 ppm was used.
(§4) Data Analysis. Metabolic stabilities were determined by measuring the rates of disappearance of test compound and positive control substrate. Data (% of substrate remaining) were plotted on a semi-log scale and fitted using an exponential decline model:
(§5) where • Ct% of substrate remaining at time=t • C0% of substrate remaining at time=0 • t time • T½ half-life • The Half-life (T½) is determined by the following equation:
(§6) [formula] • Assuming a first-order reaction, the slope (k) is extrapolated from the aforementioned plotted data.

[3] = biological target: bovine intestinal alkaline phosphatase (Bos taurus (Bovine), UniProt P19111); assay: BiALP: conversion by bovine intestinal alkaline phosphatase; format: in vitro ADME; conditions: 2 μM substrate, 100 ng/mL iALP, Tris pH 7.8, 37° C., 60 minutes
Method in brief: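 Compounds at 2 μM final were incubated 60 min at 37° C in 0.1 M Tris-HCl pH 7.8 with 1 mM MgCl2 and 1 mM ZnCl2, with or without 100 ng/mL iALP (0.01 units/mL). Samples were quenched with acetonitrile/formic acid containing labetalol. Conversion was quantified by LC-MS peak area ratios against a 2 μM product standard.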

[4] = Intestinal S9 Assay (dog GI S9); format: in vitro ADME; conditions: 1.0 mg/mL S9 protein; for half-life at 2 μM: dog, TRIS pH 7.4, read-out: Dog GI S9 T½
Description: as §1, §2, §3, §4, §5, §6

[5] = test system: HIV-1 IIIB strain; assay: MT-4 HIV Wild Type Virus Infection Assay (IIIB Virus); format: cell-based; conditions: Human immunodeficiency virus 1, IIIB, MT4, 120 h, MT-4 cells acutely infected with HIV-1 IIIB, 5 day incubation, Cell-titer glo
Method in brief: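 MT-4 cells at 2×10^6 cells/ml in RPMI/10% FBS were acutely infected with HIV-1 IIIB for 1 h at 37° C, diluted 25× and added to serially diluted compounds. After 5 days at 37° C, viability read by CellTiter-Glo luminescence; EC50 from dose-response curves.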

bovine intestinal alkaline phosphatase, sequence (P19111 20-506): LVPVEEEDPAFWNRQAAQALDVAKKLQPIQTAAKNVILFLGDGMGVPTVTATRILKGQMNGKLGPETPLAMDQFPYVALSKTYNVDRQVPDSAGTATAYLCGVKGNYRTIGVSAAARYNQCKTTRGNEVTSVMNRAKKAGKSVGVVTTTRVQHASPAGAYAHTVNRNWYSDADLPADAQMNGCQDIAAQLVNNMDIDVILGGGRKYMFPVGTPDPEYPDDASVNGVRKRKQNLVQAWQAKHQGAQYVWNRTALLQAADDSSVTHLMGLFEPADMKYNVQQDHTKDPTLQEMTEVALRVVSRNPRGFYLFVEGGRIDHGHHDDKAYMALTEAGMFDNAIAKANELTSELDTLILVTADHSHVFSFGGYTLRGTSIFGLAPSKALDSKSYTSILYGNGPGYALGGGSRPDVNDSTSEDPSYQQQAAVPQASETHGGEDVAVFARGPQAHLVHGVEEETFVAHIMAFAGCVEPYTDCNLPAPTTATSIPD

Row | SMILES | solubility at 2 h [1] | half-life at 2 μM [2] | [Compound] [3] | half-life at 2 μM [4] | EC50 [5] | Human GI S9 T½ ([2]; 2 μM, TRIS pH 7.4) | solubility ([1]; FaSSIF (pH 6.5) solubility, FaSSIF pH 6.5, dose 5 mg/mL, 2-hour incubation, ambient temperature) | EC50 ([5]; read-out: EC50) | Human GI S9 [Intermediate A] ([2]; 2 μM, TRIS pH 7.4) | Human GI S9 [Intermediate A] % ([2]; 2 μM, TRIS pH 7.4) | biALP Intermediate A or [Amprenavir] (% of total) [3] | [Intermediate A] or [Amprenavir] ([3]; parent formed) | Dog GI S9 [Intermediate A] ([4]; 2 μM, TRIS pH 7.4) | Dog GI S9 [Intermediate A] % ([4]; 2 μM, TRIS pH 7.4)
1 | COC(=O)N[C@H](C(=O)N[C@@H](Cc1ccc(C#Cc2cnc(N3CC4CCC(C3)N4C3COC3)nc2)cc1)[C@H](CN(Cc1c(F)cc(-c2ccn(C(F)F)n2)cc1F)NC(=O)[C@@H](NC(=O)OC)C(C)(C)C(F)(F)F)OC(=O)CC(C)(C)c1c(CC(=O)N2[C@H](C(=O)O)C[C@@H]3CCCC[C@@H]32)cc(C)cc1OP(=O)(O)O)C(C)(C)C(F)(F)F [Example 55] | < 1000 µg/mL | 12.7 h | 1659.2 nM | 12 h | 3480 nM | – | – | – | – | – | – | – | – | –
2 | COC(=O)N[C@H](C(=O)N[C@@H](Cc1ccc(C#Cc2cnc(N3CC4CCC(C3)N4C3COC3)nc2)cc1)[C@H](CN(Cc1c(F)cc(-c2ccn(C(F)F)n2)cc1F)NC(=O)[C@@H](NC(=O)OC)C(C)(C)C(F)(F)F)OC(=O)CC(C)(C)c1c(CC(=O)N2CCC(C(=O)O)CC2C(=O)O)cc(C)cc1OP(=O)(O)O)C(C)(C)C(F)(F)F (some centres unmarked) [Example 113] | 4140 µg/mL (≈ 2530 µM) | 6.56 h | 1948 nM | 3.38 h | 341 nM | – | – | – | – | – | – | – | – | –
3 | COC(=O)N[C@H](C(=O)N[C@@H](Cc1ccc(C#Cc2cnc(N3CC4CCC(C3)N4C3COC3)nc2)cc1)[C@H](CN(Cc1c(F)cc(-c2ccn(C(F)F)n2)cc1F)NC(=O)[C@@H](NC(=O)OC)C(C)(C)C(F)(F)F)OC(=O)CC(C)(C)c1c(CC(=O)N2C[C@@H](O)C[C@H]2C(=O)O)cc(C)cc1OP(=O)(O)O)C(C)(C)C(F)(F)F [Example 56] | 2400 µg/mL (≈ 1500 µM) | – | 1576.7 nM | 6.89 h | 254 nM | 13.2 h | – | – | – | – | – | – | – | –
4 | COC(=O)N[C@H](C(=O)N[C@@H](Cc1ccc(C#Cc2cnc(N3CC4CCC(C3)N4C3COC3)nc2)cc1)[C@H](CN(Cc1c(F)cc(-c2ccn(C(F)F)n2)cc1F)NC(=O)[C@@H](NC(=O)OC)C(C)(C)C(F)(F)F)OC(=O)CC(C)(C)c1c(CC(=O)N2CC(C)(C)C[C@H]2C(=O)O)cc(C)cc1OP(=O)(O)O)C(C)(C)C(F)(F)F [Example 61] | 2580 µg/mL (≈ 1600 µM) | 11.7 h | 1611.1 nM | 11.2 h | 1890 nM | – | – | – | – | – | – | – | – | –
5 | COC(=O)N[C@H](C(=O)N[C@@H](Cc1ccc(C#Cc2cnc(N3CC4CCC(C3)N4C3COC3)nc2)cc1)[C@H](CN(Cc1c(F)cc(-c2ccn(C(F)F)n2)cc1F)NC(=O)[C@@H](NC(=O)OC)C(C)(C)C(F)(F)F)OC(=O)CC(C)(C)c1c(CC(=O)N2C[C@H](OC)C[C@H]2C(=O)O)cc(C)cc1OP(=O)(O)O)C(C)(C)C(F)(F)F [Example 59] | 3600 µg/mL (≈ 2230 µM) | – | 1520.4 nM | 6.67 h | 658 nM | 13.2 h | – | – | – | – | – | – | – | –
6 | COC(=O)N[C@H](C(=O)N[C@@H](Cc1ccc(C#Cc2cnc(N3CC4CCC(C3)N4C3COC3)nc2)cc1)[C@H](CN(Cc1c(F)cc(-c2ccn(C(F)F)n2)cc1F)NC(=O)[C@@H](NC(=O)OC)C(C)(C)C(F)(F)F)OC(=O)CC(C)(C)c1c(CC(=O)N2CCC[C@@H]2C(=O)O)cc(C)cc1OP(=O)(O)O)C(C)(C)C(F)(F)F [Example 111] | 4760 µg/mL (≈ 3010 µM) | 10.3 h | 1803.5 nM | 1.64 h | 452 nM | – | – | – | – | – | – | – | – | –
7 | C=C1C[C@@H](C(=O)O)N(C(=O)Cc2cc(C)cc(OP(=O)(O)O)c2C(C)(C)CC(=O)O[C@@H](CN(Cc2c(F)cc(-c3ccn(C(F)F)n3)cc2F)NC(=O)[C@@H](NC(=O)OC)C(C)(C)C(F)(F)F)[C@H](Cc2ccc(C#Cc3cnc(N4CC5CCC(C4)N5C4COC4)nc3)cc2)NC(=O)[C@@H](NC(=O)OC)C(C)(C)C(F)(F)F)C1 [Example 60] | – | 12 h | 1457.7 nM | 5.81 h | – | – | 3480 µg/mL (≈ 2190 µM) | 218 nM | – | – | – | – | – | –
8 | COC(=O)N[C@H](C(=O)N[C@@H](Cc1ccc(C#Cc2cnc(N3CC4CCC(C3)N4C3COC3)nc2)cc1)[C@H](CN(Cc1c(F)cc(-c2ccn(C(F)F)n2)cc1F)NC(=O)[C@@H](NC(=O)OC)C(C)(C)C(F)(F)F)OC(=O)CC(C)(C)c1c(CC(=O)Nc2cc(C(=O)O)cc(C(=O)O)c2)cccc1OP(=O)(O)O)C(C)(C)C(F)(F)F [Example 19] | 3650 µg/mL (≈ 2230 µM) | 3.83 h | 1405.7 nM | 0.3 h | 38.9 nM | – | – | – | 323.6 nM | 22.1% | 18.4 % of total | 317.9 nM | 1045.1 nM | 94.7%
9 | COC(=O)N[C@H](C(=O)N[C@@H](Cc1ccc(C#Cc2cnc(N3CC4CCC(C3)N4C3COC3)nc2)cc1)[C@H](CN(Cc1c(F)cc(-c2ccn(C(F)F)n2)cc1F)NC(=O)[C@@H](NC(=O)OC)C(C)(C)C(F)(F)F)OC(=O)CC(C)(C)c1c(CC(=O)N[C@@H](CCS(=O)(=O)O)C(=O)O)cccc1OP(=O)(O)O)C(C)(C)C(F)(F)F [Example 40] | 4910 µg/mL (≈ 3000 µM) | 4.76 h | 1458.8 nM | 0.537 h | 40.5 nM | – | – | – | – | – | – | – | – | –
10 | COC(=O)N[C@H](C(=O)N[C@@H](Cc1ccc(C#Cc2cnc(N3CC4CCC(C3)N4C3COC3)nc2)cc1)[C@H](CN(Cc1c(F)cc(-c2ccn(C(F)F)n2)cc1F)NC(=O)[C@@H](NC(=O)OC)C(C)(C)C(F)(F)F)OC(=O)CC(C)(C)c1c(CC(=O)Nc2cc(C#N)cc(C(=O)O)c2)cc(C)cc1OP(=O)(O)O)C(C)(C)C(F)(F)F [Example 63] | 495 µg/mL (≈ 304 µM) | – | 1778.4 nM | 6.37 h | 244 nM | 13.2 h | – | – | – | – | – | – | – | –
11 | COC(=O)N[C@H](C(=O)N[C@@H](Cc1ccc(C#Cc2cnc(N3CC4CCC(C3)N4C3COC3)nc2)cc1)[C@H](CN(Cc1c(F)cc(-c2ccn(C(F)F)n2)cc1F)NC(=O)[C@@H](NC(=O)OC)C(C)(C)C(F)(F)F)OC(=O)CC(C)(C)c1c(CC(=O)N2C[C@H]3[C@@H]([C@H]2C(=O)O)C3(C)C)cc(C)cc1OP(=O)(O)O)C(C)(C)C(F)(F)F [Example 47] | 3620 µg/mL (≈ 2230 µM) | 6.39 h | 1950.3 nM | 7.34 h | 593 nM | – | – | – | – | – | – | – | – | –
12 | COC(=O)N[C@H](C(=O)N[C@@H](Cc1ccc(C#Cc2cnc(N3CC4CCC(C3)N4C3COC3)nc2)cc1)[C@H](CN(Cc1c(F)cc(-c2ccn(C(F)F)n2)cc1F)NC(=O)[C@@H](NC(=O)OC)C(C)(C)C(F)(F)F)OC(=O)CC(C)(C)c1c(CC(=O)N2CC(C(=O)O)C2)cc(C)cc1OP(=O)(O)O)C(C)(C)C(F)(F)F [Example 110] | 4420 µg/mL (≈ 2820 µM) | 8.51 h | 1852.3 nM | 2.81 h | 138 nM | – | – | – | – | – | – | – | – | –
13 | COC(=O)N[C@H](C(=O)N[C@@H](Cc1ccc(C#Cc2cnc(N3CC4CCC(C3)N4C3COC3)nc2)cc1)[C@H](CN(Cc1c(F)cc(-c2ccn(C(F)F)n2)cc1F)NC(=O)[C@@H](NC(=O)OC)C(C)(C)C(F)(F)F)OC(=O)CC(C)(C)c1c(CC(=O)N2CC[C@@H](O)[C@H]2C(=O)O)cc(C)cc1OP(=O)(O)O)C(C)(C)C(F)(F)F [Example 57] | 4100 µg/mL (≈ 2560 µM) | 11 h | 1612.8 nM | 7.19 h | 290 nM | – | – | – | – | – | – | – | – | –
